Among the data in ChEMBL document CHEMBL3217451, “Structure-based optimization of the piperazino-containing 1,3-disubstituted ureas affording sub-nanomolar inhibitors of soluble epoxide hydrolase” (Medchemcomm, 2012) are IC50 and solubility values, retold here.

Molecules are shown by their SMILES. Converted amounts (≈) assume the structure as drawn.

The target in data set [1] is T1, Bifunctional epoxide hydrolase 2 (Homo sapiens, UniProt P34913).
T1 sequence (P34913 whole entry): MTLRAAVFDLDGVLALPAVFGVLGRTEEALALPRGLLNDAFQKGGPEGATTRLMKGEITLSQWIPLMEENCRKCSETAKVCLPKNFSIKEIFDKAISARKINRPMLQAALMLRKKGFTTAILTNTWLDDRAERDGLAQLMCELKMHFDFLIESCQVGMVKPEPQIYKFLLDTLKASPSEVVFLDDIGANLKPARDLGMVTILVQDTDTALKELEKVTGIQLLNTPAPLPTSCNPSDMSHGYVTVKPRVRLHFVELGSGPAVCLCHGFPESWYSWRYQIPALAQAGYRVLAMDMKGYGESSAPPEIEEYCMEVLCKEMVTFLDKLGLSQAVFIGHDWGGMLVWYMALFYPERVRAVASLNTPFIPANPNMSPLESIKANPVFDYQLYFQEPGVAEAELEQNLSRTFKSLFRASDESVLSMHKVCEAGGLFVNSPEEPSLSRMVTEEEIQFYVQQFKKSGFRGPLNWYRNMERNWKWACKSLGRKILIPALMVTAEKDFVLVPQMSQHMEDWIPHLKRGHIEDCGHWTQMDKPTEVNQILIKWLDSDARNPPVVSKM
The experiment in a line: Inhibition of human recombinant soluble epoxide hydrolase using cyano(6-methoxy-naphthalen-2-yl)methyl-trans-[(3-phenyloxiran-2-yl)methyl]carbonate as substrate after 5 mins by fluorescence assay.

Data set [2] in a line: Solubility of the compound in sodium phosphate buffer at pH 7.4 at 25 +/- 1 degC. In kind it is physicochemical.
Data set [3] concerns the target T1, Bifunctional epoxide hydrolase 2. The experiment in a line: Inhibition of soluble epoxide hydrolase (unknown origin).

One may read the IC50 as the concentration that inhibits the measured activity by half. In general, solubility refers to the concentration that dissolves in the medium under given conditions.

Regarding `O=C(NC1CCN(C(=O)CCC(=O)N2CCNCC2)CC1)NC12CC3CC(CC(C3)C1)C2`, in data set [1], the IC50 is 77.3 nM. In data set [2], this compound returned a solubility of 8000 µg/mL (≈ 18000 µM).

On to `CC(=O)N1CCN(C(=O)c2cccc(NC(=O)NC34CC5CC(CC(C5)C3)C4)c2)CC1`, for which the IC50 in data set [1] stood at 46.3 nM. In data set [2], this compound had a solubility of 890 µg/mL (≈ 2100 µM).

Turning to `CC(=O)N1CCN(C(=O)c2ccc(NC(=O)NC34CC5CC(CC(C5)C3)C4)cc2)CC1`, the IC50 in data set [1] was determined as 9 nM. This compound displayed a solubility in data set [2] of 530 µg/mL (≈ 1250 µM).

`CC(C)(C)OC(=O)N1CCN(C(=O)c2cccc(NC(=O)NC34CC5CC(CC(C5)C3)C4)c2)CC1`: the IC50 in data set [1] worked out at 7.3 nM. This compound also had a solubility in data set [2] of 210 µg/mL (≈ 435 µM).

`CC(C)(C)OC(=O)N1CCN(C(=O)NC23CC4CC(CC(C4)C2)C3)CC1`: the IC50 in data set [1] turned out to be 490 nM.

For the compound `O=C(Nc1cccc(C(=O)N2CCNCC2)c1)NC12CC3CC(CC(C3)C1)C2`, in data set [1], the IC50 stood at 133 nM. Further, the solubility in data set [2] was 1150 µg/mL (≈ 3010 µM).

For the compound `CC(=O)N1CCN(C(=O)NC23CC4CC(CC(C4)C2)C3)CC1`, the IC50 in data set [1] was 321 nM.

For the compound `CC(=O)N1CCN(CCCOc2ccc(NC(=O)NC34CC5CC(CC(C5)C3)C4)c3cccnc23)CC1`, the IC50 in data set [1] worked out at 142 nM. In data set [2], the solubility turned out to be 130 µg/mL (≈ 257 µM).

As for `O=C(Nc1ccc(C(=O)N2CCNCC2)cc1)NC12CC3CC(CC(C3)C1)C2`, in data set [1], the IC50 came out at 67.1 nM. Further, the solubility in data set [2] stood at 1960 µg/mL (≈ 5120 µM).

With `CN1CCN(C(=O)NC23CC4CC(CC(C4)C2)C3)CC1`, the IC50 in data set [1] was 63.7 nM.

Turning to `CC(C)(C)OC(=O)N1CCN(C(=O)CCC(=O)N2CCC(NC(=O)NC34CC5CC(CC(C5)C3)C4)CC2)CC1`, the IC50 in data set [1] was determined as 18.8 nM. Further, the solubility in data set [2] is 470 µg/mL (≈ 861 µM).

`CC(C)(C)OC(=O)N1CCN(CCCCOc2cccc(NC(=O)CC34CC5CC(CC(C5)C3)C4)c2)CC1`: in data set [1], the IC50 was determined as 0.4 nM. This compound also displayed a solubility in data set [2] of 180 µg/mL (≈ 342 µM).

As to `CC(=O)N1CCN(C(=O)CCC(=O)N2CCC(NC(=O)NC34CC5CC(CC(C5)C3)C4)CC2)CC1`, in data set [1], the IC50 amounted to 44.7 nM.

Consider `CC(C)(C)OC(=O)N1CCN(CCCOc2ccc(NC(=O)NC34CC5CC(CC(C5)C3)C4)c3cccnc23)CC1`, for which the IC50 in data set [1] was found to be 6.8 nM. Also, the solubility in data set [2] was determined as 150 µg/mL (≈ 266 µM).

`CS(=O)(=O)N1CCN(C(=O)c2ccc(NC(=O)NC34CC5CC(CC(C5)C3)C4)cc2)CC1`: the IC50 in data set [1] was 1 nM. Also, the solubility in data set [2] was determined as 860 µg/mL (≈ 1870 µM).

`O=C(NCC[C@H]1CN[C@@H](Cc2ccccc2)CN1)NC12CC3CC(CC(C3)C1)C2` showed an IC50 in data set [3] of 1370 nM.

As to `CS(=O)(=O)N1CCN(CCCCOc2cccc(NC(=O)CC34CC5CC(CC(C5)C3)C4)c2)CC1`, the IC50 in data set [1] amounted to 0.5 nM. Further, the solubility in data set [2] worked out at 170 µg/mL (≈ 337 µM).

Turning to `CS(=O)(=O)N1CCN(C(=O)c2cccc(NC(=O)NC34CC5CC(CC(C5)C3)C4)c2)CC1`, the IC50 in data set [1] turned out to be 41.8 nM. The solubility in data set [2] turned out to be 130 µg/mL (≈ 282 µM).

In the case of `CC(C)(C)OC(=O)N1CCN(C(=O)c2ccc(NC(=O)NC34CC5CC(CC(C5)C3)C4)cc2)CC1`, in data set [1], the IC50 turned out to be 0.5 nM. For the same compound, in data set [2], the solubility turned out to be 500 µg/mL (≈ 1040 µM).

As to `CC(=O)N1CCN(CCCCOc2cccc(NC(=O)CC34CC5CC(CC(C5)C3)C4)c2)CC1`, the IC50 in data set [1] came to 0.6 nM. The same compound registered a solubility in data set [2] of 160 µg/mL (≈ 342 µM).

With `O=C(NC12CC3CC(CC(C3)C1)C2)N1CCNCC1`, in data set [1], the IC50 worked out at 100000 nM.
